Measurements published in PubChem BioAssay AID328 (DTP/NCI, 2004).
Values joined by “and” are separate entries in the source; they are usually repeats but may differ in a detail not shown here. Equal entries are not always repeated. Inconclusive results and toxic doses are left out.

Tested on: BDF1 mice, P388 leukemia ip, median survival T/C
Test: NCI In Vivo Anticancer Drug Screen. Data for tumor model P388 Leukemia (intraperitoneal) in B6D2F1 (BDF1) mice
Conditions: endpoint: median survival time, higher = longer survival
Outline: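 Reported as T/C, where T is the survival measurement in dosed animals and C the same measurement in vehicle controls.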

[1] = dose: 25.0 mg/kg/injection, schedule: Q01DX009 (ip), vehicle: Klucel (hydroxypropylcellulose) (HPC)
[2] = dose: 50.0 mg/kg/injection, schedule: Q01DX009 (ip), vehicle: Klucel (hydroxypropylcellulose) (HPC)
[3] = dose: 100.0 mg/kg/injection, schedule: Q01DX009 (ip), vehicle: Klucel (hydroxypropylcellulose) (HPC)
[4] = dose: 50.0 mg/kg/injection, schedule: Q01DX009 (ip), vehicle: saline with Tween-80
[5] = dose: 100.0 mg/kg/injection, schedule: Q01DX009 (ip), vehicle: saline with Tween-80
[6] = dose: 200.0 mg/kg/injection, schedule: Q01DX009 (ip), vehicle: saline with Tween-80
[7] = dose: 400.0 mg/kg/injection, schedule: Q01DX009 (ip), vehicle: saline with Tween-80
[8] = dose: 200.0 mg/kg/injection, schedule: Q01DX009 (ip), vehicle: Klucel (hydroxypropylcellulose) (HPC)
[9] = dose: 100.0 mg/kg/injection, schedule: Q04DX003 (ip), vehicle: saline with Tween-80
[10] = dose: 200.0 mg/kg/injection, schedule: Q04DX003 (ip), vehicle: saline with Tween-80
[11] = dose: 400.0 mg/kg/injection, schedule: Q04DX003 (ip), vehicle: saline with Tween-80
[12] = dose: 12.5 mg/kg/injection, schedule: Q01DX009 (ip), vehicle: saline
[13] = dose: 25.0 mg/kg/injection, schedule: Q01DX009 (ip), vehicle: saline
[14] = dose: 50.0 mg/kg/injection, schedule: Q01DX009 (ip), vehicle: saline

Structure (SMILES): O=[N+]([O-])c1cnc2ccnn2c1
- T/C (dose: 12.5 mg/kg/injection, schedule: Q01DX009 (ip), vehicle: Klucel (hydroxypropylcellulose) (HPC)): 100 % of control
- T/C [1]: 100 % of control
- T/C [2]: 100 % of control
- T/C [3]: 95 % of control

Structure (SMILES): COc1ccc(C(O)C2CCCN(C)S2(=O)=O)cc1 (stereo not drawn)
- T/C (dose: 100.0 mg/kg/injection, schedule: Q04DX002 (ip), vehicle: saline with Tween-80): 117 % of control
- T/C (dose: 200.0 mg/kg/injection, schedule: Q04DX002 (ip), vehicle: saline with Tween-80): 112 % of control
- T/C (dose: 400.0 mg/kg/injection, schedule: Q04DX002 (ip), vehicle: saline with Tween-80): 111 % of control

Structure (SMILES): COc1cccc(Nc2sc(C(=O)c3cc4cc(Cl)ccc4o3)c(N)c2C#N)c1
- T/C [4]: 109 % of control
- T/C [5]: 100 % of control
- T/C [6]: 115 % of control

Structure (SMILES): CCCCC(=O)OCC(=O)[C@]1(O)Cc2c(O)c3c(c(O)c2[C@@H](OC2CC(NC(=O)C(F)(F)F)C(O)C(C)O2)C1)C(=O)c1c(OC)cccc1C3=O (stereo partly drawn)
- T/C (dose: 5.0 mg/kg/injection, schedule: Q01DX004 (ip), vehicle: other): 162 % of control
- T/C (dose: 10.0 mg/kg/injection, schedule: Q01DX004 (ip), vehicle: other): 155 % of control and 189 % of control
- T/C (dose: 13.0 mg/kg/injection, schedule: Q01DX004 (ip), vehicle: saline with Tween-80): 203 % of control
- T/C (dose: 20.0 mg/kg/injection, schedule: Q01DX004 (ip), vehicle: other): 288 % of control and 187 % of control
- T/C (dose: 21.0 mg/kg/injection, schedule: Q01DX004 (ip), vehicle: saline with Tween-80): 221 % of control
- T/C (dose: 21.6 mg/kg/injection, schedule: Q01DX004 (ip), vehicle: saline with Tween-80): 221 % of control
- T/C (dose: 25.2 mg/kg/injection, schedule: Q04DX003 (ip), vehicle: other): 175 % of control
- T/C (dose: 30.0 mg/kg/injection, schedule: Q01DX004 (ip), vehicle: other): 263 % of control and 351 % of control
- T/C (dose: 36.0 mg/kg/injection, schedule: Q01DX004 (ip), vehicle: saline with Tween-80): 353 % of control
- T/C (dose: 40.0 mg/kg/injection, schedule: Q01DX004 (ip), vehicle: other): 98 % of control
- T/C (dose: 42.0 mg/kg/injection, schedule: Q04DX003 (ip), vehicle: other): 262 % of control
- T/C (dose: 50.0 mg/kg/injection, schedule: Q01DX004 (ip), vehicle: other): 86 % of control
- T/C (dose: 70.0 mg/kg/injection, schedule: Q04DX003 (ip), vehicle: other): 506 % of control

Structure (SMILES): Cc1ccc(CNc2cccnc2)cc1
- T/C (dose: 50.0 mg/kg/injection, schedule: Q01DX009 (ip), vehicle: other): 95 % of control
- T/C (dose: 100.0 mg/kg/injection, schedule: Q01DX009 (ip), vehicle: other): 104 % of control
- T/C [5]: 100 % of control
- T/C (dose: 200.0 mg/kg/injection, schedule: Q01DX009 (ip), vehicle: other): 100 % of control
- T/C [7]: 100 % of control

Structure (SMILES): CCC1CC2CN(CCc3c([nH]c4ccccc34)C(C(=O)OC)(c3cc4c(cc3OC)N(C)C3C(O)(C(=O)OC)C(OC(C)=O)C5(CC)C=CCN6CCC43C65)C2)C1 (stereo not drawn)
- T/C (dose: 0.06 mg/kg/injection, schedule: Q01DX009 (ip), vehicle: water): 90 % of control
- T/C (dose: 0.12 mg/kg/injection, schedule: Q01DX009 (ip), vehicle: water): 90 % of control and 100 % of control
- T/C (dose: 0.25 mg/kg/injection, schedule: Q01DX009 (ip), vehicle: water): 95 % of control and 100 % of control
- T/C (dose: 0.5 mg/kg/injection, schedule: Q01DX009 (ip), vehicle: water): 90 % of control and 100 % of control
- T/C (dose: 1.0 mg/kg/injection, schedule: Q01DX009 (ip), vehicle: water): 90 % of control and 95 % of control and 100 % of control
- T/C (dose: 2.0 mg/kg/injection, schedule: Q01DX009 (ip), vehicle: water): 90 % of control and 95 % of control
- T/C (dose: 4.0 mg/kg/injection, schedule: Q01DX009 (ip), vehicle: water): 100 % of control
- T/C (dose: 8.0 mg/kg/injection, schedule: Q01DX009 (ip), vehicle: water): 100 % of control and 90 % of control

Structure (SMILES): Clc1cc(Cl)c2c(c1)COCO2
- T/C [1]: 104 % of control
- T/C [2]: 100 % of control
- T/C [3]: 109 % of control
- T/C (dose: 100.0 mg/kg/injection, schedule: Q04DX003 (ip), vehicle: Klucel (hydroxypropylcellulose) (HPC)): 90 % of control
- T/C [8]: 90 % of control
- T/C (dose: 200.0 mg/kg/injection, schedule: Q04DX003 (ip), vehicle: Klucel (hydroxypropylcellulose) (HPC)): 100 % of control
- T/C (dose: 400.0 mg/kg/injection, schedule: Q04DX003 (ip), vehicle: Klucel (hydroxypropylcellulose) (HPC)): 100 % of control

Structure (SMILES): CCCCCCC(c1c(O)cc(C)[nH]c1=O)c1c(O)cc(C)[nH]c1=O
- T/C [4]: 96 % of control
- T/C [5]: 96 % of control
- T/C [6]: 90 % of control

Structure (SMILES): COc1cc(OC)c(OC)cc1/C=N/Nc1ccc(C(=O)O)cc1
- T/C [9]: 105 % of control
- T/C [10]: 100 % of control
- T/C [11]: 110 % of control

Structure (SMILES): NNc1ncnc2c1ncn2C1OC(CO)C(O)C1O (stereo not drawn)
- T/C (dose: 7.5 mg/kg/injection, schedule: Q04DX003 (ip), vehicle: saline): 90 % of control
- T/C [12]: 109 % of control
- T/C (dose: 15.0 mg/kg/injection, schedule: Q01DX010 (ip), vehicle: saline): 113 % of control
- T/C (dose: 15.0 mg/kg/injection, schedule: Q04DX003 (ip), vehicle: saline): 105 % of control
- T/C [13]: 109 % of control
- T/C (dose: 30.0 mg/kg/injection, schedule: Q04DX003 (ip), vehicle: saline): 105 % of control
- T/C [14]: 113 % of control
- T/C (dose: 60.0 mg/kg/injection, schedule: Q01DX010 (ip), vehicle: saline): 154 % of control
- T/C (dose: 60.0 mg/kg/injection, schedule: Q04DX003 (ip), vehicle: saline): 120 % of control
- T/C (dose: 120.0 mg/kg/injection, schedule: Q04DX003 (ip), vehicle: saline): 105 % of control

Structure (SMILES): COc1cc2cc3c4cc(OC)c(OC)cc4cc[n+]3c(CCC(=O)O)c2cc1OC (tested in a mixture with another compound)
- T/C [3]: 92 % of control
- T/C [8]: 119 % of control

Structure (SMILES): CC(=O)C(c1ccccc1)[N+](C)(C)C (stereo not drawn)
- T/C (dose: 100.0 mg/kg/injection, schedule: Q04DX003 (ip), vehicle: other): 108 % of control

Structure (SMILES): CC1(C)N=C(N)N=C(N)N1c1ccc(F)c(C(F)(F)F)c1
- T/C (dose: 3.12 mg/kg/injection, schedule: Q01DX009 (ip), vehicle: saline): 120 % of control
- T/C [12]: 169 % of control and 189 % of control
- T/C (dose: 16.0 mg/kg/injection, schedule: Q01DX009 (ip), vehicle: saline): 216 % of control
- T/C [13]: 245 % of control and 87 % of control and 191 % of control
- T/C [14]: 216 % of control

Structure (SMILES): CC(C)C(O)(C(=O)NN)C(=O)NN
- T/C [5]: 100 % of control
- T/C [6]: 109 % of control
- T/C [7]: 100 % of control

Structure (SMILES): C=C(C)c1ccccc1S(=O)(=O)c1ccccc1C(C)(C)O
- T/C [9]: 105 % of control
- T/C [10]: 110 % of control
- T/C [11]: 114 % of control

Structure (SMILES): COc1ccc(-c2oc3cc(O)cc(O)c3c(=O)c2OC)cc1O
- T/C (dose: 10.0 mg/kg/injection, schedule: Q01DX010 (ip), vehicle: saline): 100 % of control
- T/C (dose: 20.0 mg/kg/injection, schedule: Q01DX010 (ip), vehicle: saline): 100 % of control
- T/C (dose: 40.0 mg/kg/injection, schedule: Q01DX010 (ip), vehicle: saline): 109 % of control

Structure (SMILES): NNC(=O)CCCCCC(=O)NN
- T/C (dose: 100.0 mg/kg/injection, schedule: Q01DX001 (ip), vehicle: saline): 100 % of control
- T/C (dose: 100.0 mg/kg/injection, schedule: Q01DX009 (ip), vehicle: alcohol): 110 % of control
- T/C (dose: 100.0 mg/kg/injection, schedule: Q04DX003 (ip), vehicle: saline): 95 % of control
- T/C (dose: 200.0 mg/kg/injection, schedule: Q01DX001 (ip), vehicle: saline): 100 % of control
- T/C (dose: 200.0 mg/kg/injection, schedule: Q01DX009 (ip), vehicle: alcohol): 95 % of control
- T/C (dose: 200.0 mg/kg/injection, schedule: Q04DX003 (ip), vehicle: saline): 113 % of control
- T/C (dose: 400.0 mg/kg/injection, schedule: Q01DX001 (ip), vehicle: saline): 100 % of control
- T/C (dose: 400.0 mg/kg/injection, schedule: Q01DX009 (ip), vehicle: alcohol): 90 % of control
- T/C (dose: 400.0 mg/kg/injection, schedule: Q04DX003 (ip), vehicle: saline): 90 % of control

Structure (SMILES): CC(=O)Nc1ccc(NNCc2ccccc2)c(N)c1
- T/C (dose: 100.0 mg/kg/injection, schedule: Q01DX001 (ip), vehicle: saline with Tween-80): 97 % of control
- T/C (dose: 200.0 mg/kg/injection, schedule: Q01DX001 (ip), vehicle: saline with Tween-80): 96 % of control
- T/C (dose: 400.0 mg/kg/injection, schedule: Q01DX001 (ip), vehicle: saline with Tween-80): 91 % of control
